From patent US10106526B2, “Inhibitors of cyclin-dependent kinase 7 (CDK7)” (SYROS PHARMACEUTICALS, INC., priority 2014, dated 2018)
Structures can show the parent of a compound that is named as a salt.

Key:
Jurkat cells = test: Inhibition of proliferation of Jurkat cells (CellTiter-Glo, 72 hour); format: cell-based, human; details: 10 μM to 316 pM
Procedure: Jurkat cells are a cell line established from a human T cell leukemia. Representative compounds of the invention were tested at different concentrations (from 10 μM to 316 pM; 0.5 log serial dilutions) for their ability to inhibit the proliferation of Jurkat cells. Known CDK inhibitors flavopiridol and triptolide were used as positive controls. Cells were grown in RPMI 1640+10% FBS+1% Glutamax. The cells were supplemented with FBS (Life Technologies) and 100 U·mL^− penicillin, 100 μg·mL^− streptomycin (Invitrogen) and cultured at 37° C. in a humidified chamber in the presence of 5% CO2. Proliferation assays were conducted over a 72 hour time period. CellTiter-Glo® (Promega Corporation, Madison, Wis. USA) was used to assess the anti-proliferative effects of the compounds following manufacturer's directions and utilizing the reagents supplied with the CellTiter-Glo® kit. In this table, “A” represents an IC50 of less than 500 nM; “B” an IC50 of between 500 nM and 5 μM; and “C” an IC50 of greater than 5 μM.

CDK7 = target: T1, CDK7 (Homo sapiens, UniProt P50613); test: CDK7 kinase activity, Adapta kinase assay (Life Technologies); format: biochemical; details: Adapta kinase assay at Life Technologies; 10 μM down to 0.514 nM, 3-fold serial dilutions; read-out: CDK7 Inhibition (IC50)
T1 construct: purchased Life Technologies (Adapta kinase assay service)
T1 sequence (P50613 whole entry): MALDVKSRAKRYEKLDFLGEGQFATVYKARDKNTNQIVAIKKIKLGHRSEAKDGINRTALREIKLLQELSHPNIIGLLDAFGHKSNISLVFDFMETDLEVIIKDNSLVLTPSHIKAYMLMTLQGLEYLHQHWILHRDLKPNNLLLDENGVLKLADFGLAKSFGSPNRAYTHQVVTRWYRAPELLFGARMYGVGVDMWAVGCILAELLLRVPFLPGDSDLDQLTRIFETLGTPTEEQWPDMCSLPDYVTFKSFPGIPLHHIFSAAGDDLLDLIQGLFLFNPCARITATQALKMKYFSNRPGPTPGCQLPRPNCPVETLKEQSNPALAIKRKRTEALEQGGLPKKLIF
T1 sequence (P51946 whole entry partner): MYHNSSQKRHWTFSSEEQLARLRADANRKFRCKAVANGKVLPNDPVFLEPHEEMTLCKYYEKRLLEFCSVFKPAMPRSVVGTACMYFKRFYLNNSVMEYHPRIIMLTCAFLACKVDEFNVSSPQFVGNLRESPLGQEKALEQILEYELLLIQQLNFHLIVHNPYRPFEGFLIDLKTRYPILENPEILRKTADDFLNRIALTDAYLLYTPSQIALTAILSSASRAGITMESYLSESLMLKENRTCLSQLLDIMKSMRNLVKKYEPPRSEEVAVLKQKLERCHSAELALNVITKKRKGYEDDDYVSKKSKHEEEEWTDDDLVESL
T1 sequence (P51948 whole entry partner): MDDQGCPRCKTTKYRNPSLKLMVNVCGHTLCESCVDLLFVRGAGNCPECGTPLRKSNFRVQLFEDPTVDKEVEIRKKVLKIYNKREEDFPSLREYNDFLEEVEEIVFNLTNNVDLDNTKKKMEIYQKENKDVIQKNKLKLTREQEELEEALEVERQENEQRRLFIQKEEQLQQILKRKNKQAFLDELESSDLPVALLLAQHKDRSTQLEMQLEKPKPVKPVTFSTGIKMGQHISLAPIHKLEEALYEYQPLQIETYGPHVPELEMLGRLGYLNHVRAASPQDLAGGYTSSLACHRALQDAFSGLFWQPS
Procedure: Compounds of the invention were assayed for CDK7 activity at Life Technologies™ (Grand Island, N.Y.) using their commercially available Adapta® kinase assay services. Compounds were tested at concentrations ranging from 10 μM down to 0.514 nM in a series of 3-fold serial dilutions. Details of these assays, including substrates used, are available on the Life Technologies web site (http://www.lifetechnologies.com/us/en/home/life-science/drug-discovery/target-and-lead-identification-and-validation/kinasebiology/kinase-activity-assays.html).

A673 cells = test: Inhibition of proliferation of A673 cells (CyQUANT, 72 hour); format: cell-based, human; details: Homo sapiens, 72 hour proliferation
Procedure: A673 cells are a cell line derived from human muscle Ewing's sarcoma. Representative compounds of the invention were tested at different concentrations (from 4 μM to 126.4 pM; 0.5 log serial dilutions) for their ability to inhibit the proliferation of A673 cells. Known CDK inhibitors flavopiridol and triptolide were used as positive controls. Cells were grown in Dulbecco's Modified Eagle's Medium, +10% FBS+1 mM Sodium Pyruvate. The cells were cultured at 37° C. in a humidified chamber in the presence of 5% CO2. Proliferation assays were conducted over a 72 hour time period. CyQUANT® (Life Technologies, Chicago, Ill. USA) was used to assess the anti-proliferative effects of the compounds following manufacturer's directions and utilizing the reagents supplied with the CyQUANT® kit. In this table, “A” represents an IC50 of less than 500 nM; “B” an IC50 of between 500 nM and 5 μM; and “C” an IC50 of greater than 5 μM.

Structure (SMILES)	IC50 (Jurkat cells; Homo sapiens)	IC50 (CDK7)	IC50 (Jurkat cells)	IC50 (A673 cells)
O=C(N[C@H]1CCC[C@@H](Nc2ncc(Cl)c(-c3c[nH]c4ccccc34)n2)C1)C1CCN(C(=O)/C=C/CN2CCOCC2)CC1 [Compound 202-1, N-((1S,3R)-3-((5-chloro-4-(1H-indol-3-yl)pyrimidin-2-yl)amino)cyclohexyl)-1-((E)-4-morpholinobut-2-enoyl)piperidine-4-carboxamide]	0.5 to 5 µM	> 1 µM	–	–
C=CC(=O)N(C)[C@H]1CCC[C@@H](Nc2ncc(Cl)c(-c3c[nH]c4ccccc34)n2)C1 [Compound 171, N-((1S,3R)-3-(5-chloro-4-(1H-indol-3-yl)pyrimidin-2-ylamino)cyclohexyl)-N-methylacrylamide]	< 0.5 µM	< 0.1 µM	–	–
N[C@H]1CC[C@H](C(=O)Nc2cccc(Nc3ncc(Cl)c(-c4c[nH]c5ccccc45)n3)c2)CC1 [Compound 1002, trans-4-amino-N-(3-(5-chloro-4-(1H-indol-3-yl)pyrimidin-2-ylamino)phenyl) cyclohexanecarboxamide.HCl]	0.5 to 5 µM	< 0.1 µM	–	–
O=C(Nc1cccc(Nc2ncc(Cl)c(-c3c[nH]c4ccccc34)n2)c1)C1CCNCC1 [Compound 1006, N-(3-(5-chloro-4-(1H-indol-3-yl)pyrimidin-2-ylamino)phenyl)piperidine-4-carboxamide]	0.5 to 5 µM	< 0.1 µM	–	–
CN(C)C/C=C/C(=O)N[C@H]1CC[C@H](C(=O)Nc2cccc(Nc3ncc(Cl)c(-c4c[nH]c5ccccc45)n3)c2)CC1 [Compound 102, (trans,E)-N-(3-(5-chloro-4-(1H-indol-3-yl)pyrimidin-2-ylamino)phenyl)-4-(4-(dimethylamino)but-2-enamido)cyclohexanecarboxamide]	0.5 to 5 µM	< 0.1 µM	–	–
CN(C)C/C=C/C(=O)N1CCC(C(=O)Nc2cccc(Nc3ncc(Cl)c(-c4c[nH]c5ccccc45)n3)c2)CC1 [Compound 105, (E)-N-(3-(5-chloro-4-(1H-indol-3-yl)pyrimidin-2-ylamino)phenyl)-1-(4-(dimethylamino)but-2-enoyl)piperidine-4-carboxamide]	0.5 to 5 µM	< 0.1 µM	–	–
N#Cc1cnc(N[C@@H]2CCC[C@H](NC(=O)c3ccc(N)cn3)C2)nc1-c1c[nH]c2ccccc12 [Compound 1009, 5-amino-N-((1S,3R)-3-(5-cyano-4-(1H-indol-3-yl)pyrimidin-2-ylamino)cyclohexyl)picolinamide]	–	< 0.1 µM	–	–
CN(C)CC=CC(=O)N1CCC(CNC2CCC(Nc3ncc(Cl)c(-c4c[nH]c5ccccc45)n3)CC2)CC1 (centres unmarked) [compound 196]	–	< 0.1 µM	0.5 to 5 µM	–
CN(C)C/C=C/C(=O)N1CCC[C@@H](C(=O)Nc2cccc(Nc3ncc(Cl)c(-c4c[nH]c5ccccc45)n3)c2)C1 [Compound 103, (3R,E)-N-(3-(5-chloro-4-(1H-indol-3-yl)pyrimidin-2-ylamino)phenyl)-1-(4-(dimethylamino)but-2-enoyl)piperidine-3-carboxamide]	0.5 to 5 µM	< 0.1 µM	–	–
C=CC(=O)NC12CC(C(=O)Nc3cccc(Nc4ncc(Cl)c(-c5c[nH]c6ccccc56)n4)c3)(C1)C2 (racemic) [Compound 108, N-(3-{[5-chloro-4-(1H-indol-3-yl)pyrimidin-2-yl]amino}phenyl)-3-(prop-2-enamido)bicyclo[1.1.1]pentane-1-carboxamide]	–	> 1 µM	–	–
NCC(F)(F)C(=O)N[C@H]1CCC[C@@H](Nc2ncc(Cl)c(-c3c[nH]c4ccccc34)n2)C1 [Compound 1010, 3-amino-N-((1S,3R)-3-(5-chloro-4-(1H-indol-3-yl)pyrimidin-2-ylamino)cyclohexyl)-2,2-difluoropropanamide]	–	< 0.1 µM	–	–

Continued, in another order:

IC50 (Jurkat cells; Homo sapiens)	IC50 (CDK7)	IC50 (Jurkat cells)	Structure (SMILES)	IC50 (A673 cells)
< 0.5 µM	< 0.1 µM	–	O=C(N[C@@H]1CCC[C@H](Nc2ncc(Cl)c(-c3c[nH]c4ccccc34)n2)C1)C1CCN(C(=O)/C=C/CN2CCOCC2)CC1 [Compound 202-2, N-((1R,3S)-3-((5-chloro-4-(1H-indol-3-yl)pyrimidin-2-yl)amino)cyclohexyl)-1-((E)-4-morpholinobut-2-enoyl)piperidine-4-carboxamide]	–
0.5 to 5 µM	–	–	Nc1nc(C(=O)N[C@H]2CCC[C@@H](Nc3ncc(Cl)c(-c4c[nH]c5ccccc45)n3)C2)cs1 [Compound 1026, 2-amino-N-((1S,3R)-3-(5-chloro-4-(1H-indol-3-yl)pyrimidin-2-ylamino)cyclohexyl)thiazole-4-carboxamide]	–
> 5 µM	< 0.1 µM	–	CN(C)C/C=C/C(=O)N[C@H]1CC[C@@H](C(=O)Nc2cccc(Nc3ncc(Cl)c(-c4c[nH]c5ccccc45)n3)c2)CC1 [Compound 101, (Cis,E)-N-(3-(5-chloro-4-(1H-indol-3-yl)pyrimidin-2-ylamino)phenyl)-4-(4-(dimethylamino)but-2-enamido)cyclohexanecarboxamide]	–
0.5 to 5 µM	< 0.1 µM	–	CN(C)C/C=C/C(=O)NCCCCC(=O)N1CC[C@@H](Nc2ncc(Cl)c(-c3c[nH]c4ccccc34)n2)C1 [Compound 100, (E)-N-(5-((R)-3-(5-chloro-4-(1H-indol-3-yl)pyrimidin-2-ylamino)pyrrolidin-1-yl)-5-oxopentyl)-4-(dimethylamino)but-2-enamide]	–
0.5 to 5 µM	< 0.1 µM	–	O=C(Nc1cccc(Nc2ncc(Cl)c(-c3c[nH]c4ccccc34)n2)c1)[C@@H]1CCCNC1 [Compound 1004, (3R)—N-(3-(5-chloro-4-(1H-indol-3-yl)pyrimidin-2-ylamino)phenyl)piperidine-3-carboxamide]	–
0.5 to 5 µM	< 0.1 µM	–	NCCCCC(=O)N1CC[C@@H](Nc2ncc(Cl)c(-c3c[nH]c4ccccc34)n2)C1 [Compound 1000, 5-((R)-3-(5-chloro-4-(1H-indol-3-yl)pyrimidin-2-ylamino)pyrrolidin-1-yl)-5-oxopentan-1-aminium chloride]	–
0.5 to 5 µM	< 0.1 µM	–	Nc1ccc(C(=O)N[C@H]2CCC[C@@H](Nc3ncc(Cl)c(-c4c[nH]c5ccccc45)n3)C2)nc1 [Compound 1007, 5-amino-N-((1S,3R)-3-(5-chloro-4-(1H-indol-3-yl)pyrimidin-2-ylamino)cyclohexyl)picolinamide]	–
–	0.1 to 1 µM	< 0.5 µM	C=CC(=O)N1CCCC(CN[C@H]2CC[C@@H](Nc3ncc(Cl)c(-c4c[nH]c5ccccc45)n3)CC2)C1 (single isomer, unassigned) [compound 195]	–
–	< 0.1 µM	0.5 to 5 µM	CN(C)CC=CC(=O)N1CCC(CNC2CCC(Nc3ncc(Cl)c(-c4c[nH]c5ccccc45)n3)CC2)CC1 (centres unmarked) [compound 197]	–
0.5 to 5 µM	–	–	NCCc1cc2ccc(Nc3ncc(Cl)c(-c4c[nH]c5ccccc45)n3)cc2[nH]1 [Compound 1028, 2-(2-aminoethyl)-N-(5-chloro-4-(1H-indol-3-yl)pyrimidin-2-yl)-1H-indol-6-amine.HCl]	–
0.5 to 5 µM	–	–	Nc1ccc(C(=O)Nc2cccc(Nc3ncc(Cl)c(-c4c[nH]c5ccccc45)n3)c2)cn1 [Compound 1024, 6-amino-N-(3-(5-chloro-4-(1H-indol-3-yl)pyrimidin-2-ylamino)phenyl)nicotinamide]	–
–	< 0.1 µM	–	C=CC(=O)N1CCN(C[C@H]2CCC[C@@H](Nc3ncc(Cl)c(-c4c[nH]c5ccccc45)n3)C2)CC1 [Compound 129, 1-(4-(((1S,3R)-3-((5-chloro-4-(1H-indol-3-yl)pyrimidin-2-yl)amino)cyclohexyl)methyl)piperazin-1-yl)prop-2-en-1-One]	< 0.5 µM
0.5 to 5 µM	–	–	CN(C)CCCC(=O)NCCc1cc2ccc(Nc3ncc(Cl)c(-c4c[nH]c5ccccc45)n3)cc2[nH]1 [Compound 1029, N-(2-(6-(5-chloro-4-(1H-indol-3-yl)pyrimidin-2-ylamino)-1H-indol-2-yl)ethyl)-4-(dimethylamino)butanamide]	–
0.5 to 5 µM	–	–	Nc1ccc(C(=O)N[C@H]2CCC[C@@H](Nc3ncc(Cl)c(-c4c[nH]c5ccccc45)n3)C2)nn1 [Compound 1027, 6-amino-N-((1S,3R)-3-(5-chloro-4-(1H-indol-3-yl)pyrimidin-2-ylamino)cyclohexyl)pyridazine-3-carboxamide]	–
0.5 to 5 µM	–	–	Nc1ccc(C(=O)N[C@H]2CCC[C@@H](Nc3ncc(Cl)c(-c4c[nH]c5ccccc45)n3)C2)cn1 [Compound 1025, 6-amino-N-((1S,3R)-3-(5-chloro-4-(1H-indol-3-yl)pyrimidin-2-ylamino)cyclohexyl)nicotinamide]	–
–	–	0.5 to 5 µM	CN(C)CCCC(=O)Nc1ccc(C(=O)Nc2cccc(Nc3ncc(Cl)c(-c4c[nH]c5ccccc45)n3)c2)nc1 [compound 1023]	–
